One may read the AUC(0-t) as exposure summed from dosing to a finite time, without extrapolation to infinity. As a reminder, the Cmax is the highest concentration seen after dosing. In general, pEC50 refers to −log10 of the EC50, conventionally taken in molar units.

The structures appear in SMILES notation. pEC50: −log10 of the molar value. *1 amine or outer side, *2 acyl side, *3 side chain or, on linkers, in order; H or OH if unused. Where a SMILES comes first, the peptide text is derived from it. Side-chain parts run from the residue outwards. [ ]: non-standard residue; d: D form. The star is where a group is joined. C20 diacid = O=C(O)CCCCCCCCCCCCCCCCCCC(=O)*; C18 diacid = O=C(O)CCCCCCCCCCCCCCCCC(=O)*; γGlu = O=C(O)[C@H](CCC(=O)[*:2])N[*:1]; NMeI = CC[C@H](C)[C@H](NC)C(=O)O; αMeL = CC(C)C[C@](C)(N)C(=O)O; AEEA = NCCOCCOCC(=O)O; Aib = CC(C)(N)C(=O)O

Data set [1] is described as follows: In vitro plasma stability, human plasma. The format is in vitro ADME. Details: dose or concentration left out as unconfirmed. Particulars: Human PLM, 37° C.
Description: (§1) In vitro plasma metabolic stability was studied in male Sprague Dawley rats and human. Test compounds were incubated at 3 M for 2 hours at 37° C. At each time point (0, 0.25, 1 and 2 h), samples were prepared for analysis by means of a single step protein precipitation technique by adding 150 μL of ethanol, 0.1% formic acid to 50 μL aliquots of plasma. Samples were mixed by vortex for homogeneity and then subjected to centrifugation at 14000 rpm for 15 min. The supernatant (100 μL) was collected, diluted with 100 μL of water, 0.1% formic acid and analyzed by LC-HRMS (TripleTOF 6600+, AB Sciex). For each test compound, the area ratios at each time point were compared to the 0 h area ratio and converted to a percentage remaining.
Data set [2] is described as follows: In vitro plasma stability, rat plasma. Particulars: Rat PLM, 37° C.; for remaining at 2 h: male, Sprague Dawley, plasma. It counts as in vitro ADME. Details: remaining at 2 h: dose or concentration left out as unconfirmed.
Description: as §1
A short description of data set [3]: In vitro plasma stability, minipig plasma. The format is in vitro ADME. Details: remaining at 2 h: dose or concentration left out as unconfirmed. Particulars: Minipig PLM, 37° C.
Data set [4] in a line: In vitro subcutaneous tissue supernatant (SCts) stability and metabolite identification, rat. It counts as in vitro ADME. Details: remaining at 2 h: dose or concentration left out as unconfirmed. As to conditions: male, Sprague Dawley; rat subcutaneous tissue supernatant (SCts), 37° C, 2 h.
Data set [5] is described as follows: Pharmacokinetics in male Sprague Dawley rats after subcutaneous administration. It counts as in vivo. Particulars: plasma, rat, SC, 0.1 mg/kg.
A further data set deals with T1, rat CRF2 a (Rattus norvegicus, UniProt P47866).
T1 construct: host or cells: A7R5 rat aortic smooth muscle cells
T1 sequence (P47866 27-431 isoform P47866-2 limits assumed): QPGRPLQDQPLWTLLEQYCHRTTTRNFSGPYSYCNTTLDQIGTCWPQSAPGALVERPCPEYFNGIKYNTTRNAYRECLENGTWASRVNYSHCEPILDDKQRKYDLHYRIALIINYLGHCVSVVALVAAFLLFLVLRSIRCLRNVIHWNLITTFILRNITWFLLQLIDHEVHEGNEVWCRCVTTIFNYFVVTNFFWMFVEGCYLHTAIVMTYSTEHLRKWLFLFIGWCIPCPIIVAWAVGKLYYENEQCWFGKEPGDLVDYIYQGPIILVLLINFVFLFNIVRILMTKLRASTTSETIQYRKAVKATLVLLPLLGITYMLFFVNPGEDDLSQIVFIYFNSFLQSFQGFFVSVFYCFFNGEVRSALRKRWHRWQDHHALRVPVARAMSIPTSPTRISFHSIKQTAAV
Kind of data set: Activity at rat CRF2 a, cAMP assay in A7R5 rat aortic smooth muscle cells. Particulars: 0% HSA, 100% = Sauvagine at 100 nM. It counts as cell-based. The gist of the method:
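cAMP response measured in frozen-stock A7R5 rat aortic smooth muscle cells, 5000 cells/well final. 100% activation defined by Sauvagine at 100 nM in control wells.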
(In general: cAMP levels reflect the balance of adenylyl cyclase and phosphodiesterase activity.)

The next data set is described as follows: in vitro. Details: dose or concentration left out as unconfirmed. Particulars: dog, plasma.

As to `CC[C@H](C)[C@H](NC(C)=O)C(=O)N[C@H](C(=O)N[C@@H](CC(C)C)C(=O)N[C@@H](CO)C(=O)N[C@@H](CC(C)C)C(=O)N[C@@H](CC(=O)O)C(=O)N[C@@H](C(=O)N1CCC[C@H]1C(=O)N[C@H](C(=O)N[C@@H](CCCCN)C(=O)N[C@@](C)(CC(C)C)C(=O)N[C@@H](CCCCNC(=O)COCCOCCNC(=O)COCCOCCNC(=O)CC[C@H](NC(=O)CCCCCCCCCCCCCCCCC(=O)O)C(=O)O)C(=O)N[C@@H](CCCCN)C(=O)N[C@H](C(=O)N[C@@H](CC(C)C)C(=O)N[C@@H](CC(C)C)C(=O)N[C@@H](CCC(=O)O)C(=O)N[C@@H](CCC(N)=O)C(=O)N[C@@H](CCC(=O)O)C(=O)N[C@@H](CCCCN)C(=O)N[C@@H](CCC(N)=O)C(=O)N[C@@H](CCCCN)C(=O)N[C@@H](CCCCN)C(=O)N[C@@H](CCC(N)=O)C(=O)N[C@@H](CCCNC(=N)N)C(=O)N[C@@H](CCC(=O)O)C(=O)N[C@@H](CCC(N)=O)C(=O)N[C@@H](C)C(=O)N[C@@H](CCC(=O)O)C(=O)N[C@H](C(=O)N[C@@H](CC(N)=O)C(=O)NC(C)(C)C(=O)N[C@@H](CCC(N)=O)C(=O)N[C@H](C(=O)N[C@@H](CC(C)C)C(=O)N[C@@H](C)C(=O)N[C@@H](CCC(N)=O)C(=O)N[C@H](C(N)=O)C(C)C)[C@@H](C)CC)[C@@H](C)O)[C@@H](C)CC)[C@@H](C)CC)C(C)C)C(C)C` [compound 110] (Ac-IVLSLD[dV]PIK[αMeL]K([AEEA-AEEA-γGlu-C18 diacid])KILLEQEKQKKQREQAETN[Aib]QILAQV-NH2), the fraction remaining at 2 h worked out at 97% in data set [1]; 95% in data set [2]; 106% in data set [3] (pig, plasma); 77% in data set [4]. Besides, in data set [5], the AUC(0-t) amounted to 4.43 µg·h/mL. For the same compound, the peak level in data set [5] (Cmax) was 0.291 µg/mL.

Take `CC[C@H](C)[C@H](NC)C(=O)N[C@H](C(=O)N[C@@H](CC(C)C)C(=O)N[C@@H](CO)C(=O)N[C@@H](CC(C)C)C(=O)N[C@@H](CC(=O)O)C(=O)N[C@@H](C(=O)N1CCC[C@H]1C(=O)N[C@H](C(=O)N[C@@H](CCCCN)C(=O)N[C@@H](CC(C)C)C(=O)N[C@@H](CCCCNC(=O)COCCOCCNC(=O)COCCOCCNC(=O)CC[C@H](NC(=O)CCCCCCCCCCCCCCCCC(=O)O)C(=O)O)C(=O)N[C@@H](CCCCN)C(=O)N[C@H](C(=O)N[C@@H](CC(C)C)C(=O)N[C@@H](CC(C)C)C(=O)N[C@@H](CCC(=O)O)C(=O)N[C@@H](CCC(N)=O)C(=O)N[C@@H](CCC(=O)O)C(=O)N[C@@H](CCCCN)C(=O)N[C@@H](CCC(N)=O)C(=O)N[C@@H](CCCCN)C(=O)N[C@@H](CCCCN)C(=O)N[C@@H](CCC(N)=O)C(=O)N[C@@H](CCCNC(=N)N)C(=O)N[C@@H](CCC(=O)O)C(=O)N[C@@H](CCC(N)=O)C(=O)N[C@@H](C)C(=O)N[C@@H](CCC(=O)O)C(=O)N[C@H](C(=O)N[C@@H](CC(N)=O)C(=O)NC(C)(C)C(=O)N[C@@H](CCC(N)=O)C(=O)N[C@H](C(=O)N[C@@H](CC(C)C)C(=O)N[C@@H](C)C(=O)N[C@@H](CCC(N)=O)C(=O)N[C@H](C(N)=O)C(C)C)[C@@H](C)CC)[C@@H](C)O)[C@@H](C)CC)[C@@H](C)CC)C(C)C)C(C)C` [compound 118] (H-[NMeI]VLSLD[dV]PIKLK([AEEA-AEEA-γGlu-C18 diacid])KILLEQEKQKKQREQAETN[Aib]QILAQV-NH2): in data set [1], the amount remaining at 2 h turned out to be 91%. Besides, the “% remaining at 2 hours” value in data set [2] amounted to 128%. In addition, in data set [3], the “% remaining at 2 hours” value is given as 126%. In data set [5], this compound yielded an AUC(0-t) of 3.54 µg·h/mL and a peak concentration (Cmax) of 0.225 µg/mL.

On rat CRF2 a, `CC[C@H](C)[C@H](NC(C)=O)C(=O)N[C@H](C(=O)N[C@@H](CC(C)C)C(=O)N[C@@H](CO)C(=O)N[C@@H](CC(C)C)C(=O)N[C@@H](CC(=O)O)C(=O)N[C@@H](C(=O)N1CCC[C@H]1C(=O)N[C@H](C(=O)N[C@@H](CCCCN)C(=O)N[C@@H](CC(C)C)C(=O)N[C@@H](CCCCNC(=O)CC[C@H](NC(=O)CCCCCCCCCCCCCCCCCCC(=O)O)C(=O)O)C(=O)N[C@@H](CCCCN)C(=O)N[C@H](C(=O)N[C@@H](CC(C)C)C(=O)N[C@@H](CC(C)C)C(=O)N[C@@H](CCC(=O)O)C(=O)N[C@@H](CCC(N)=O)C(=O)N[C@@H](CCC(=O)O)C(=O)N[C@@H](CCCCN)C(=O)N[C@@H](CCC(N)=O)C(=O)N[C@@H](CCCCN)C(=O)N[C@@H](CCCCN)C(=O)N[C@@H](CCC(N)=O)C(=O)N[C@@H](CCCNC(=N)N)C(=O)N[C@@H](CCC(=O)O)C(=O)N[C@@H](CCC(N)=O)C(=O)N[C@@H](C)C(=O)N[C@@H](CCC(=O)O)C(=O)N[C@H](C(=O)N[C@@H](CC(N)=O)C(=O)NC(C)(C)C(=O)N[C@@H](CCC(N)=O)C(=O)N[C@H](C(=O)N[C@@H](CC(C)C)C(=O)N[C@@H](C)C(=O)N[C@@H](CCC(N)=O)C(=O)N[C@H](C(N)=O)C(C)C)[C@@H](C)CC)[C@@H](C)O)[C@@H](C)CC)[C@@H](C)CC)C(C)C)C(C)C` [compound 206] (Ac-IVLSLD[dV]PIKLK([γGlu-C20 diacid])KILLEQEKQKKQREQAETN[Aib]QILAQV-NH2) had a pEC50 of 10.22. In data set [4], the amount remaining at 2 h stood at 73%. In data set [5], this compound yielded an AUC(0-t) of 5.77 µg·h/mL and a Cmax of 0.197 µg/mL.

As for `CC[C@H](C)[C@H](NC)C(=O)N[C@H](C(=O)N[C@@H](CC(C)C)C(=O)N[C@@H](CO)C(=O)N[C@@H](CC(C)C)C(=O)N[C@@H](CC(=O)O)C(=O)N[C@@H](C(=O)N1CCC[C@H]1C(=O)N[C@H](C(=O)N[C@@H](CCCCN)C(=O)N[C@@H](CC(C)C)C(=O)N[C@@H](CCCCNC(=O)CC[C@H](NC(=O)CCCCCCCCCCCCCCCCCCC(=O)O)C(=O)O)C(=O)N[C@@H](CCCCN)C(=O)N[C@H](C(=O)N[C@@H](CC(C)C)C(=O)N[C@@H](CC(C)C)C(=O)N[C@@H](CCC(=O)O)C(=O)N[C@@H](CCC(N)=O)C(=O)N[C@@H](CCC(=O)O)C(=O)N[C@@H](CCCCN)C(=O)N[C@@H](CCC(N)=O)C(=O)N[C@@H](CCCCN)C(=O)NC(C)(C)C(=O)N[C@@H](CCC(N)=O)C(=O)N[C@@H](CCCNC(=N)N)C(=O)N[C@@H](CCC(=O)O)C(=O)N[C@@H](CCC(N)=O)C(=O)N[C@@H](C)C(=O)N[C@@H](CCC(=O)O)C(=O)N[C@H](C(=O)N[C@@H](CC(N)=O)C(=O)NC(C)(C)C(=O)N[C@@H](CCC(N)=O)C(=O)N[C@H](C(=O)N[C@@H](CC(C)C)C(=O)N[C@@H](C)C(=O)N[C@@H](CCC(N)=O)C(=O)N[C@H](C(N)=O)C(C)C)[C@@H](C)CC)[C@@H](C)O)[C@@H](C)CC)[C@@H](C)CC)C(C)C)C(C)C` [compound 215] (H-[NMeI]VLSLD[dV]PIKLK([γGlu-C20 diacid])KILLEQEKQK[Aib]QREQAETN[Aib]QILAQV-NH2), in data set [4], the fraction remaining at 2 h was found to be 84%. In data set [5], this compound gave an AUC(0-t) of 9.41 µg·h/mL and a maximum concentration (Cmax) of 0.325 µg/mL.

`CC[C@H](C)[C@H](NC)C(=O)N[C@H](C(=O)N[C@@H](CC(C)C)C(=O)N[C@@H](CO)C(=O)N[C@@H](CC(C)C)C(=O)N[C@@H](CC(=O)O)C(=O)N[C@@H](C(=O)N1CCC[C@H]1C(=O)N[C@H](C(=O)N[C@@H](CCCCN)C(=O)N[C@@H](CC(C)C)C(=O)N[C@@H](CCCCNC(=O)CC[C@H](NC(=O)CCCCCCCCCCCCCCCCCCC(=O)O)C(=O)O)C(=O)N[C@@H](CCCCN)C(=O)N[C@H](C(=O)N[C@@H](CC(C)C)C(=O)N[C@@H](CC(C)C)C(=O)N[C@@H](CCC(=O)O)C(=O)N[C@@H](CCC(N)=O)C(=O)N[C@@H](CCC(=O)O)C(=O)N[C@@H](CCCCN)C(=O)N[C@@H](CCC(N)=O)C(=O)N[C@@H](CCCCN)C(=O)N[C@@H](CCC(=O)O)C(=O)N[C@@H](CCC(N)=O)C(=O)N[C@@H](CCCNC(=N)N)C(=O)N[C@@H](CCC(=O)O)C(=O)N[C@@H](CCC(N)=O)C(=O)N[C@@H](C)C(=O)N[C@@H](CCC(=O)O)C(=O)N[C@H](C(=O)N[C@@H](CC(N)=O)C(=O)NC(C)(C)C(=O)N[C@@H](CCC(N)=O)C(=O)N[C@H](C(=O)N[C@@H](CC(C)C)C(=O)N[C@@H](C)C(=O)N[C@@H](CCC(N)=O)C(=O)N[C@H](C(N)=O)C(C)C)[C@@H](C)CC)[C@@H](C)O)[C@@H](C)CC)[C@@H](C)CC)C(C)C)C(C)C` [compound 218] (H-[NMeI]VLSLD[dV]PIKLK([γGlu-C20 diacid])KILLEQEKQKEQREQAETN[Aib]QILAQV-NH2): the amount remaining at 2 h in data set [1] was determined as 99%; in data set [2], 109%; in data set [4], 71%; in the data set “in vitro”, 102%. Also, the AUC(0-t) in data set [5] was determined as 4.12 µg·h/mL. The compound also registered a Cmax in data set [5] of 0.115 µg/mL.

Values taken from patent publication US20260001928A1 (CORTERIA PHARMACEUTICALS, priority 2022, published 2026).
